# Patent US20080311047A1, “Multimetric Biosensors and Methods of Using Same” (priority 2005, published 2008)
# Assays:
# [1] = target: T1, FLIPW-CTY (eCFP-TrpR-Venus) (Escherichia coli, UniProt P0A881); assay: In vitro FRET titration of FLIPW-CTY with tryptophan substrates; format: binding, E. coli; settings: for Kd: 20 mM MOPS pH 7.0, read-out: Affinity of FLIPW-CTY for tryptophan substrate
# T1 construct: made in house; host or cells: E. coli BL21(DE3)gold
# Experimental: (§1) In Vitro Characterization of FLIPW and FLIPpur Sensors: Purified sensor was added to a dilution series of ligand in 20 mM MOPS pH 7.0 (FLIPW) or 20 mM MES pH7.0 (FLIPpur) in the range of 10^−2 to 10^−6 M and analyzed in a monochromator microplate reader (Safire, Tecan, Austria; excitation 433/12 nm, emission 485/12 and 528/12 nm). Protein was diluted to give Venus/eYFP readouts of 20,000 to 30,000 at a manual gain between 70-75. By using the change in FRET ratio upon binding of ligand, binding constants (Kd) were determined by fitting the substrate titration curves to a single-site-binding isotherm. Formulas for decrease in ratio upon ligand binding:
# (§2) R=Rmax−(n·[S])/(Kd+[S])·(Rmax−Rmin)
# (§3) with [S], substrate concentration; n, number of equal binding sites; R, ratio; Rmax, maximum ratio in the absence of ligand; and Rmin, minimum ratio at saturation with ligand. Formula for increase in ratio upon ligand binding:
# (§4) R=Rmin+(Rmax−Rmin)·(n·[S])/(Kd+[S])
# (§5) with [S], substrate concentration; n, number of equal binding sites; R, ratio; Rmax, maximum ratio at saturation with ligand; and Rmin, minimum ratio in absence of ligand. Three independent protein preparations were analyzed and each protein preparation was analyzed in triplicate.
# [2] = target: T2, FLIPW-CTYT (eCFP-TrpR-Venus-TrpR) (Escherichia coli, UniProt P0A881); assay: In vitro FRET titration of FLIPW-CTYT with tryptophan substrates; format: binding, E. coli; settings: 20 mM MOPS pH 7.0; read-out: Affinity of FLIPW-CTYT for tryptophan substrate
# T2 construct: The gene products of pTK203, pTK204, and pTK205 were denoted FLIPW-TCTY, FLIPW-CTYT, and FLIPW-CTTY, respectively; made in house; host or cells: E. coli BL21(DE3)gold
# Experimental: as §1, §2, §3, §4, §5
# COS-7 cells [3] = settings: read-out: apparent KM for combined transport and metabolism
# Experimental: (§6) Tissue Culture and Transfection: For cytosolic expression in COS-7 cells, the gene encoding CTYT was amplified by PCR with primers encoding unique BamHI and EcoRI restriction sites at the 5′ and 3′ end, respectively, and cloned into BamHI/EcoRI digested pcDNA3.1(+) vector (Invitrogen), resulting in plasmid pTK222. COS-7 cells were grown in Dulbecco's modified Eagle's medium (high glucose; DMEM, Gibco) with 10% fetal calf serum and 50 μg/ml penicillin and streptomycin (Gibco). Cells were cultured at 37° C. and 5% CO2. For imaging, cells were cultured in 8-well LabTekII German tissue culture glass slides (Nalg Nunc International) and transiently transfected at 50-70% confluence using Lipofectamine 2000 Reagent (Invitrogen) in Opti-MEM I reduced serum medium (Gibco). After transfection, cells were cultured for 16 hours in Opti-MEM followed by 3 hours in DMEM prior to imaging.
# (§7) Microplate Assays: Adherent cells in 96-well microplates were washed once with 100 μl Tyrode's buffer (119 mM NaCl, 2.5 mM KCl, 2 mM CaCl2, 2 mM MgCl2, 25 mM HEPES, 30 mM glucose, pH 7.3-7.4).
# [4] = target: FLIPW-CTY (eCFP-TrpR-Venus fusion of E. coli tryptophan repressor TrpR, SEQ ID NO: 3) (Escherichia coli, UniProt P0A881); assay: L-tryptophan analog titration of FLIPW-CTY by FRET ratio change, single-site-binding isotherm; settings: FLIPW-CTY Kd compared with free TrpR (Marmorstein et al. 1987); larger than free TrpR
# Description: The protein sequence encoded on pTK164 was denoted FLIPW-CTY.
# [5] = target: FLIPW-TCTY (TrpR-eCFP-TrpR-Venus fusion of E. coli tryptophan repressor TrpR, SEQ ID NO: 5) (Escherichia coli, UniProt P0A881); assay: L-tryptophan titration of FLIPW-TCTY by FRET ratio change; settings: 20 mM MOPS pH 7.0, apparent binding constant
# COS-7 cells [6] = assay: tryptophan uptake by COS-7 cell cultures in 96-well microplates monitored with FLIPW-CTYT; format: cell-based, monkey; settings: in words
# Experimental: as §6, §7
# human TAT1 = target: T3, human TAT1 (Homo sapiens, UniProt Q8TF71); settings: human TAT1 in Xenopus oocytes (Kim et al. 2002); cited from earlier work
# T3 construct: host or cells: Xenopus oocytes
# T3 sequence (Q8TF71 1-515): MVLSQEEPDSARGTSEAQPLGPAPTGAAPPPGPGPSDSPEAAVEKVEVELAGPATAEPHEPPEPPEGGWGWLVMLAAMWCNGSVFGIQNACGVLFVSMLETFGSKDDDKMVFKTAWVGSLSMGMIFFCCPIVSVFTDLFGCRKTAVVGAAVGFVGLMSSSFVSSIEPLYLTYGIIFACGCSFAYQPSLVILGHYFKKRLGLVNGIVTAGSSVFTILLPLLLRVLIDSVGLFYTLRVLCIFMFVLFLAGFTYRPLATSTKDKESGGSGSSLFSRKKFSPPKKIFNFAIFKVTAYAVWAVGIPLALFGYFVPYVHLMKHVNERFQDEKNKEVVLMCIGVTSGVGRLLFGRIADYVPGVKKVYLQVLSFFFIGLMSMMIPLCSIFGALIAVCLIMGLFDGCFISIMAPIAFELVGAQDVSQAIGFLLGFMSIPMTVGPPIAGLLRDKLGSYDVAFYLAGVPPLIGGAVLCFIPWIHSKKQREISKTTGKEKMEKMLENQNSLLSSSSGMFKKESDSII
# LAT2 = target: T4, LAT2 (Homo sapiens, UniProt Q9UHI5); settings: LAT2 in Xenopus oocytes (Pineda et al. 1999); cited from earlier work
# T4 construct: host or cells: Xenopus oocytes
# T4 sequence (Q9UHI5 1-535): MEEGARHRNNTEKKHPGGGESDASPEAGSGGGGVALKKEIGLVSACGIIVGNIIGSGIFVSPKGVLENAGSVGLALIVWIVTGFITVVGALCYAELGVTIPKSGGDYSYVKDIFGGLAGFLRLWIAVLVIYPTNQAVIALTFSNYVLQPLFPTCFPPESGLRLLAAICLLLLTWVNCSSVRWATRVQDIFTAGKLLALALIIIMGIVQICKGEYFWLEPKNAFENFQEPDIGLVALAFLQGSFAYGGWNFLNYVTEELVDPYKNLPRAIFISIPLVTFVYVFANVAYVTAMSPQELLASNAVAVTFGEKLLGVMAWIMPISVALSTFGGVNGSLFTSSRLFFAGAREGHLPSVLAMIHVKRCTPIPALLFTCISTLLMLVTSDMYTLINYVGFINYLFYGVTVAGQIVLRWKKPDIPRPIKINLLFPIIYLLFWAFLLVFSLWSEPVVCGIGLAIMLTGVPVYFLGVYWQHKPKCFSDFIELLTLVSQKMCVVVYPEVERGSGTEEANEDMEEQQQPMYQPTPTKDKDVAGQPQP
# [7] = test system: E. coli tryptophan operon repressor TrpR, wild-type, SEQ ID NO: 1; settings: Marmorstein et al. 1987; cited from earlier work
# [8] = target: T5, FLIPpur (His6-eCFP-PurR-eYFP fusion of E. coli purine repressor PurR, residues 56 to 341, Arg190Gln, Leu263Pro) (Escherichia coli, UniProt P0ACP7, L263P/R190Q); assay: hypoxanthine titration of FLIPpur by FRET ratio change; format: binding
# T5 construct: expressed in E. coli BL21(DE3)gold, purified
# Description: FLIPW and FLIPpur constructs were harbored in E. coli BL21(DE3)gold and sensor proteins were produced and purified as described previously (Fehr et al. 2002).
# [9] = test system: E. coli purine repressor PurR variant Arg190Gln; settings: Lu et al. 1998; cited from earlier work
# T5 sequence (P0ACP7 56-341 R190Q/L263P): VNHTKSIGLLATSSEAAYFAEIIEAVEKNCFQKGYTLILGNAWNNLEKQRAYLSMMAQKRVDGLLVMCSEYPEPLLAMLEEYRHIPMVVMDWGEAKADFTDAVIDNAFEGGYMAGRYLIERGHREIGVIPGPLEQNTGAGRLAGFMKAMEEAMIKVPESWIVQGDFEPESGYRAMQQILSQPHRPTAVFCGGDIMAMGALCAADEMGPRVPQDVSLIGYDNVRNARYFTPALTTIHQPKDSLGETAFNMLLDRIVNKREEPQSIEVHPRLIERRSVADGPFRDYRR
compound,measurement,setting,value
Cc1ccc2[nH]cc(C[C@H](N)C(=O)O)c2c1 [L-5-methyl-tryptophan],Kd,[1],60 ± 10 µM
N[C@H](Cc1c[nH]c2ccccc12)C(=O)O [D-tryptophan],Kd,[1],3100 ± 300 µM
same,Concentration giving decrease of FRET ratio relative to L-tryptophan,"[1]; titration of FLIPW-CTY, higher concentrations than L-tryptophan",about 5 fold
N[C@@H](Cc1c[nH]c2ccccc12)C(=O)O [L-tryptophan],Kd,[1],220 ± 20 µM
same,Kd,[2],210 ± 20 µM
same,Km,COS-7 cells [3],0.88 ± 0.27 µM
same,apparent Kd relative to free TrpR,[4],about an order of magnitude
same,Kd,[5],20 µM
same,effective KM for combined tryptophan uptake and metabolism,COS-7 cells [6],in the micromolar range
same,Tryptophan uptake affinity,human TAT1,450 µM
same,Tryptophan uptake affinity,LAT2,58 µM
same,affinity,[7],micromolar affinity
O=c1[nH]cnc2nc[nH]c12 [hypoxanthine],Kd,[8],5.6 ± 0.7 µM
same,Kd of free PurR Arg190Gln compared with FLIPpur,[9],identical to that of free PurR Arg190Gln
N[C@@H](Cc1c[nH]c2ccc(O)cc12)C(=O)O [L-5-hydroxy-tryptophan],Kd,[1],6000 ± 800 µM
